# Key:
# C57BL/6 mice = assay: In vivo translation efficacy of hEPO-encoding mRNA-LNPs (serum hEPO ELISA); settings: 1 μg mRNA i.v., 4, 8, 24 and 48 h
# Experimental: Two reporters were selected to determine in vivo protein production: firefly luciferase (FLuc) and human erythropoietin (hEPO). The mRNA encoding each gene was obtained by IVT using T7 RNA polymerase for co-transcriptional capping with m^7Gppp^5′SAmpG and m^7GpppAmpG as the reference cap structure. 500 μl or 1000 μl of the IVT mix (for obtaining mRNA encoding hEPO or FLuc, respectively) contained following components at indicated final concentration: transcription buffer with 2 mM spermidine and Bis-Tris pH 6.5, 1 U/μl RNase inhibitor (RiboLock, ThermoFisher Scientific), 5 mM ATP, CTP and UTP, 4 mM GTP, 10 mM DTT, 25 mM MgCl2, 0.002 U/μl inorganic pyrophosphatase (ThermoFisher Scientific), 10 mM m^7GpppAmpG or m^7Gppp^5’SAmpG, 40 ng/μl linearized plasmid as the DNA template and 0.125 μg/μl T7 RNA polymerase (in-house prepared). All components were gently mixed by pipetting and incubated for one hour at 37°C. After DNA template removal, obtained mRNA was initially purified using oligo(dT)25 resin, as previously described, and concentrated by ultrafiltration (Amicon Ultra-15 50K or 100K, Millipore) prior loading on preparative column. […] Eluate quality was analyzed on 1 × TBE 1.2% agarose gel, and the fractions containing mRNA of the highest purity were combined, desalted by ultrafiltration (Amicon Ultra-15 50K or 100K, Millipore), and precipitated. […]
# Human Dcp2 = biological target: T1, Human Dcp2 (Homo sapiens, UniProt Q8IU60); assay: RNA decapping assay with recombinant hDcp2; assay type: biochemical; settings: fraction of decapped RNA after 30 min of incubation with hDcp2, 27-nt RNA capped with the analog, 37 °C; triplicates ± SD
# T1 construct: made in house; host or cells: E. coli
# Experimental: Human Dcp2 was expressed in E. coli and purified as described previously ([52]). Short 27 nt-capped RNAs (24.2 ng) were diluted with decapping buffer (50 mM Tris–HCl pH 8.0, 50 mM NH4Cl, 0.01% NP-40, 1 mM DTT, 5 mM MgCl2 and 2 mM MnCl2; 2.9 μl of freshly prepared 10 × Buffer) and the final volume was adjusted to 29 μl with ultrapure RNase free water. 4.2 ng (5 μl) of the solution was taken out as time zero reference and diluted with 5 μl loading dye (5 M urea, 44% formamide, 20 mM EDTA, 0.03% bromophenol blue, 0.03% xylene cyanol). The remaining RNAs (20 ng/24 μl) were subjected to 10 nM hDcp2 (250 nM, 1 μl) and the mixtures were incubated at 37°C for 1 h. At defined time points (5, 15, 30 and 60 min), 4 ng of RNA (5 μl) were taken out and the reactions were quenched by adding an equal volume of loading dye. RNAs were resolved electrophoretically on denaturing 15% acrylamide:bisacrylamide 19:1/7 M urea/1 × TBE gel, stained with SYBR Gold (Invitrogen) and visualized using a Typhoon FLA 9500 (GE Healthcare). The decapping progress was determined for each time point by densitometry analysis of the gels, as a ratio between the intensity of the band corresponding to capped RNA and the sum of the intensity of bands from capped and uncapped RNAs. The percentages of remaining capped RNA were then plotted as a function of time.
# The RNAs used to determine the capping efficiencies were also useful to study the susceptibility of capped RNA to decapping by hDcp2, the catalytic subunit of the major human mRNA decapping complex Dcp1/Dcp2, which releases m^7GDP and 5′-monophosphorylated RNA (in this case the 26-nt pApG-RNA24; Figure 4C). The progress of decapping at different time points (5, 15, 30 and 60 min) was monitored by HR-PAGE followed by densitometric analysis of the gels (Figure 4C, triplicates of gels are shown in Supplementary Figure S2), and the fraction of remaining capped RNA (27-nt) was plotted as a function of time (Figure 4D-G). […] For better visualization, the data of modified capped RNAs were grouped according to the type of modification present at the 5′ end and presented in separate graphs (Figure 4E–G). To quantify the relative susceptibility to hDcp2, we compared the decapping levels at the 30 min time point (Table 1). For RNAs capped with β-S-triphosphate analogs (1–6, Figure 4E, Table 1), we observed a significant difference in susceptibility to hDcp2 between RP and SP isomers, independent of the methylation pattern.
smiles,measurement,setting,value
"CO[C@@H]1[C@H](OP(=O)(O)OC[C@H]2O[C@@H](n3cnc4c(=O)[nH]c(N)nc43)[C@H](O)[C@@H]2O)[C@@H](CSP(=O)([O-])OP(=O)(O)OP(=O)(O)OC[C@H]2O[C@@H](n3c[n+](C)c4c(O)nc(N)nc43)[C@H](O)[C@@H]2O)O[C@H]1n1cnc2c(N)ncnc21 [Compound 8, m^7Gppp^5’SAmpG]",serum hEPO protein expression versus m^7GpppAmpG-capped mRNA (in words),C57BL/6 mice; MC3 LNP,slight increase in protein expression
same,serum hEPO protein expression versus m^7GpppAmpG-capped mRNA (in words),C57BL/6 mice; SM-102 LNP,no significant differences
same,Susceptibility to hDcp2 (@30 min),Human Dcp2,0.64 ± 0.11
